“Also recorded” adds a separate entry of the source. Read-outs that look alike come from different tables or passages of the source.
Assays:
Type in all cases: cell-based, human
FRDA fibroblasts [1] = assay: BSO sensitivity of FRDA fibroblasts (cell viability)
Protocol: (§1) Friedreich Ataxia primary culture fibroblast cell lines F1 and control fibroblast line C1 were provided by the Insel-Spital Bern (Switzerland), FRDA line F3 was provided by Hopital Necker, Paris (France), FRDA lines F2 and control lines C2 and C3 were obtained from Coriell Cell Repositories (Camden, N.J.; catalog numbers GM04078, GM08402 and GM08399 respectively). Cells were grown in a humidified atmosphere supplemented with 5% CO2. […]
(§2) The cells were seeded in 96-well plates at a density of 4000 cells/well. […] Cell viability was measured when the first signs of toxicity appeared in the controls (typically after 12 to 48 h). […] The plates were washed twice with PBS and fluorescence intensity was measured with a Gemini Spectramax XS spectrofluorimeter (Molecular Devices, Sunnyvale, Calif.) using excitation and emission wavelengths of 485 nm and 525 nm respectively. Live cells imaging was performed with a Zeiss Axiovert 135M fluorescence microscope equipped with a cooled CCD camera (Sensicam, PCO Computer Optics, Kelheim, FRG). […]

[2] = tested on: GST activity in control cells; assay: Glutathione-S-transferase activity in control cell extracts; conditions: 500 nM sodium selenite or 1 mM BSO
Protocol: (§3) Control and FRDA cells (5×10^5 cells grown in 10 cm dishes) were preincubated with sodium selenite (500 nM) for 24 hours and then subjected to 1 mM BSO treatment for 24 hours. Total cell extracts were used to measure glutathione content, glutathione peroxidase activity and glutathione-S-transferase activity.
(§4) To determine the glutathione peroxidase activity, cell extracts obtained for total GSH measurements were adjusted with PBS to a final protein concentration of 1.85 mg/ml. Enzymatic activity was measured with the Glutathione peroxidase cellular activity assay kit (Sigma, St Louis, Mo.) essentially according to the instructions of the manufacturer: Enzymatic activity was measured with 40 μg total protein extract in a final reaction volume of 100 μl. NADPH consumption was measured by the decrease in NADPH fluorescence at 445 nm. […] Glutathione-S-transferase activity was determined in the same way as the glutathione content, except that the assay was performed in the presence of an excess of glutathione (1 mM) instead of an excess of exogenous glutathione-S-transferase. Because the BSO treatment is known to deplete cellular (GSH) levels, intracellular GSH concentrations were measured first. […] Oxidized glutathione is reduced by an excess exogenous glutathione reductase that will consume a corresponding amount of NADPH that is then measured by fluorescence. […]

control fibroblasts = assay: BSO sensitivity of control fibroblasts (cell viability)
Protocol: as §1, §2

[3] = tested on: GPX enzymatic activity in control cells; assay: Glutathione peroxidase activity in control cell extracts
Protocol: as §3
(§5) To determine the glutathione peroxidase activity, cell extracts obtained for total GSH measurements were adjusted with PBS to a final protein concentration of 1.85 mg/ml. Enzymatic activity was measured with the Glutathione peroxidase cellular activity assay kit (Sigma, St Louis, Mo.) essentially according to the instructions of the manufacturer: Enzymatic activity was measured with 40 μg total protein extract in a final reaction volume of 100 μl. NADPH consumption was measured by the decrease in NADPH fluorescence at 445 nm. All measurements were done in triplicate in 96-well plates with a Gemini spectrofluorimeter using excitation and emission wavelengths of 340 nm and 445 nm respectively. Glutathione-S-transferase activity was determined in the same way as the glutathione content, except that the assay was performed in the presence of an excess of glutathione (1 mM) instead of an excess of exogenous glutathione-S-transferase. Because the BSO treatment is known to deplete cellular (GSH) levels, intracellular GSH concentrations were measured first. Any difference in basal glutathione levels between the two cell lines that were tested were not observed (FIG. 4, panel A). […] (FIG. 4, panel A). From this, it was concluded that the GSH levels per se are not responsible for the observed difference in phenotype between the two cell types. […] Therefore, GPX enzymatic activity in extracts from both cell types was compared. This measurement is based on the recycling of oxidized glutathione generated by GPX, using tert-butyl hydroperoxide as substrate. Oxidized glutathione is reduced by an excess exogenous glutathione reductase that will consume a corresponding amount of NADPH that is then measured by fluorescence. […]

[4] = tested on: GPX enzymatic activity in FRDA cells; assay: Glutathione peroxidase activity in FRDA cell extracts
Protocol: as §3, §5

[5] = tested on: intracellular GSH in control and FRDA cells; assay: Intracellular glutathione content (monochlorobimane method)
Protocol: as §3
To determine the glutathione content, cells were trypsinized, washed twice with PBS and snap frozen in 100 μl PBS. Cells were lysed in PBS supplemented with a protease inhibitor cocktail (Complete, Roche Diagnostics, Rotkreuz, Switzerland) by 4 freeze/thaw cycles. Total protein content was measured with the BioRad protein assay (BioRad, Hercules, Calif.) using calibrated bovine serum albumin solutions as standards (Pierce). Reduced glutathione content was measured essentially as described (Kamencic, H., et al., Monochlorobimane fluorometric method to measure tissue glutathione, Anal Biochem, 286, 35-7., (2000)) with a final monochlorobimane (mClB) (Molecular Probes, Eugene, Oreg.) concentration of 25 μM. The GSH-mClB adduct fluorescence was measured with a Gemini spectrofluorimeter using excitation and emission wavelengths of 380 nm and 470 nm respectively. Known amounts of reduced glutathione were used as standards.

FRDA fibroblasts [6] = assay: Rescue of FRDA fibroblasts from BSO-induced cell death (CalceinAM/ethidium homodimer cell viability)
Protocol: Friedreich Ataxia primary culture fibroblast cell lines F1 and control fibroblast line C1 were provided by the Insel-Spital Bern (Switzerland), FRDA line F3 was provided by Hopital Necker, Paris (France), FRDA lines F2 and control lines C2 and C3 were obtained from Coriell Cell Repositories (Camden, N.J.; catalog numbers GM04078, GM08402 and GM08399 respectively). Cells were grown in a humidified atmosphere supplemented with 5% CO2. For experiments, the cells were trypsinized and resuspended at a density of 40000 cells/ml in growth medium consisting of 25% (v/v) M199 EBS and 64% (v/v) MEM EBS without phenol red (Bioconcept, Allschwil, Switzerland) supplemented with 10% (v/v) fetal calf serum (PAA Laboratories, Linz, Austria), 100 U/ml penicillin, 100 μg/ml streptomycin (PAA Laboratories, Linz, Austria), 10 μg/ml insulin (Sigma, Buchs, Switzerland), 10 ng/ml EGF (Sigma, Buchs, Switzerland) and 10 ng/ml bFGF (PreproTech, Rocky Hill, N.J.) and 2 mM glutamine (Sigma, Buchs, Switzerland).
The cells were seeded in 96-well plates at a density of 4000 cells/well. They were incubated in the presence of various concentrations of L-buthionine-(S,R)-sulfoximine (BSO), an inhibitor of γ-glutamyl cysteine synthase (EC: 6.3.2.2), the rate limiting enzyme in the biosynthesis of glutathione. Cell viability was measured when the first signs of toxicity appeared in the controls (typically after 12 to 48 h). The cells were stained for 60 min at room temperature in PBS with 1.2 μM CalceinAM and 4 μM Ethidium homodimer (Live/Dead assay, Molecular Probes, Eugene, Oreg.). The plates were washed twice with PBS and fluorescence intensity was measured with a Gemini Spectramax XS spectrofluorimeter (Molecular Devices, Sunnyvale, Calif.) using excitation and emission wavelengths of 485 nm and 525 nm respectively. Live cells imaging was performed with a Zeiss Axiovert 135M fluorescence microscope equipped with a cooled CCD camera (Sensicam, PCO Computer Optics, Kelheim, FRG). Image acquisition was performed with the ImagePro Plus software (Media Cybermetics, Silver Spring, Md.).
[…] Cell viability was measured as described in Example 2.
Cell viability was measured after a further 48 hours incubation as described in Example 2. EC50 values were deduced from the dose-response curves. The natural CoQ10 was not active in this assay (Table 1). However, a possible bioavailability problem with this molecule due to its 50 carbon atom side chain can not be ruled out. CoQ1 had EC50 values similar to Idebenone (0.2 μM). CoQ2 performed better than Idebenone, with an EC50 value of 30 nM. […] Decylubiquinone was almost as effective as CoQ2, with an EC50 of 40 nM.
FRDA cells were incubated with increasing concentrations of sodium selenite (prepared as a stock solution 5 mM in PBS) for 24 hours, then subjected to BSO stress. Cell viability was measured as described in Example 2.
Based on the previous results, the hypothesis whether small-molecules GPX mimetics could rescue the cell death phenotype of FRDA cells when exposed to BSO was tested. FRDA cells were incubated for 24 hours in the presence of Ebselen, a GPX mimetic (Muller, A., et al., “A novel biologically active seleno-organic compound—I. Glutathione peroxidase-like activity in vitro and antioxidant capacity of PZ 51 (Ebselen)”, Biochem Pharmacol, 33, 3235-9., (1984)) and then subjected to 1 mM BSO treatment.
FRDA cells were incubated in the presence of a number of GPX mimetics. Two classes of molecules (FIG. 7) were evaluated: monoselenides (compound number 4, 5 and 8) and diselenides (compound number 1-3, 6, 7, 9-16). Dose-response curves were obtained for each molecule. From the dose-response curves not only the EC50, but also the concentration range for which a molecule produced at least 50% cell survival upon BSO challenge was calculated (FIG. 8).
GPX mimetics were tested as described in Example 3. Dose-response curves were obtained for all compounds tested. […]

[7] = tested on: GST activity in FRDA cells; assay: Glutathione-S-transferase activity in FRDA cell extracts; conditions: 500 nM sodium selenite
Protocol: as §3, §4

FRDA fibroblasts [8] = assay: Rescue of FRDA fibroblasts from BSO-induced cell death (CalceinAM/ethidium homodimer cell viability); conditions: no preincubation
[9] = Homo sapiens, Fibroblast, Table 1, 24 h preincubation, 1 mM BSO, viability after further 48 h, read-out: EC50
[10] = 500 nM sodium selenite, then 1 mM BSO
[11] = FRDA cells preincubated 24 h with compound, then 1 mM BSO, read-out: EC50 value, prevention of cell death

Molecule: CCCCS(=N)(=O)CCC(N)C(=O)O [BSO, L-buthionine-(S,R)-sulfoximine]
- viability compared to untreated controls (FRDA fibroblasts [1]; 1 mM BSO, FRDA cell lines F1-F3): less than 10%
- BSO concentration giving marked reduction in cell titer (FRDA fibroblasts [1]; overnight exposure): 4 µM
- effect on GST activity [2]: neither modulated
- viability compared to untreated controls (average) (control fibroblasts; 1 mM BSO, control cell lines C1-C3): 60%
- BSO concentration giving slight decrease in cell density (control fibroblasts; overnight exposure): 100 µM
- effect of BSO on GPX enzyme activity ([3]; 1 mM BSO 24 h, no selenium): small decrease in enzyme activity
- effect of BSO on GPX enzyme activity ([4]; 1 mM BSO 24 h, no selenium): small decrease in enzyme activity
- effect of BSO on glutathione levels ([5]; 1 mM BSO 24 h, both cell types): reduction in glutathione levels

Molecule: COC1=C(OC)C(=O)C(C)=CC1=O [CoQ0]
- activity in rescuing FRDA cells from BSO (in words) (FRDA fibroblasts [6]; 24 h preincubation, 1 mM BSO): inactive; also recorded: not active

Molecule: COC1=C(OC)C(=O)C(C/C=C(\C)CCC=C(C)C)=C(C)C1=O [CoQ2]
- EC50 (FRDA fibroblasts [6]; FRDA cells preincubated 24 h with compound, then 1 mM BSO, viability after further 48 h, read-out: EC50 value, rescue of FRDA cell death): 30 nM

Molecule: COC1=C(OC)C(=O)C(C/C=C(\C)CC/C=C(\C)CC/C=C(\C)CC/C=C(\C)CC/C=C(\C)CC/C=C(\C)CC/C=C(\C)CC/C=C(\C)CC/C=C(\C)CCC=C(C)C)=C(C)C1=O [CoQ10]
- activity in rescuing FRDA cells from BSO (in words) (FRDA fibroblasts [6]; 24 h preincubation, 1 mM BSO): not active; also recorded: did not reach the 50% cell viability rescue
- EC50 (FRDA fibroblasts [6]; Table 1, 24 h preincubation, 1 mM BSO, viability after further 48 h, read-out: EC50): > 50000 nM

Molecule: CCCCCCCCCCC1=C(C)C(=O)C(OC)=C(OC)C1=O [Decylubiquinone, 2,3-Dimethoxy-5-methyl-6-decyl-1,4-benzoquinone]
- working range (concentrations giving at least 50% cell viability) (FRDA fibroblasts [6]; 1 mM BSO): up to 3 orders of magnitude
- EC50 (FRDA fibroblasts [6]; Homo sapiens, Fibroblast, FRDA cells preincubated 24 h with compound, then 1 mM BSO, viability after further 48 h, read-out: EC50 value, rescue of FRDA cell death): 40 nM
- EC50 (FRDA fibroblasts [6]; [9]): 40 nM

Molecule: COC1=C(OC)C(=O)C(CCCCCCCCCCO)=C(C)C1=O [Idebenone, 2,3-dimethoxy-5-methyl-6(10-hydroxydecyl)-1,4-benzoquinone]
- rescue effect at the highest concentration tested (FRDA fibroblasts [6]; 50 μM compound, 1 mM BSO): slightly diminished
- appearance of treated cells upon microscopic examination (FRDA fibroblasts [6]; 1 mM BSO + 5 μM Idebenone, CalceinAM/ethidium homodimer): undistinguishable from untreated cells
- concentration at which full rescue was observed (FRDA fibroblasts [6]; 24 h preincubation, 1 mM BSO): 2 µM
- EC50 (FRDA fibroblasts [6]; Homo sapiens, Fibroblast, FRDA cells preincubated 24 h with compound, then 1 mM BSO, read-out: EC50 value, prevention of cell death): 500 nM
- EC50 (FRDA fibroblasts [6]; [9]): 500 nM

Molecule: Cc1c(C)c2c(c(C)c1O)CCC(C)(C(=O)O)O2 (stereo not shown) [Trolox, 6-hydroxy-2,5,7,8-tetramethylchroman-2-carboxylic acid]
- viability at 25 µM (FRDA fibroblasts [6]; Homo sapiens, Fibroblast, read-out: cell viability preserved): 60%
- cell viability (FRDA fibroblasts [6]; concentrations higher than 25 μM, 1 mM BSO): 55%

Molecule: O=[Se]([O-])[O-].[Na+].[Na+] [sodium selenite]
- effect on GST activity [7]: slightly reduces
- effect on GST activity [2]: neither modulated
- protection when added at the same time as BSO (FRDA fibroblasts [8]): did not protect
- concentration that protected the cells fully (FRDA fibroblasts [6]; 24 h preincubation, then BSO): 200 nM
- effect of concentrations higher than 200 nM (FRDA fibroblasts [6]; 24 h preincubation, then BSO): enhanced cell growth
- effect on basal GPX activity ([3]; 500 nM sodium selenite, no BSO): not enhanced
- effect on GPX activity under BSO treatment [3, 10]: prevented the enzyme activity loss
- increase in basal GPX enzyme activity ([4]; 500 nM sodium selenite, no BSO): 50%
- factor of increase in GPX activity [4, 10]: 3
- effect of selenium preincubation on BSO glutathione depletion ([5]; 500 nM sodium selenite 24 h, then 1 mM BSO 24 h): did not prevent the glutathione depletion

Molecule: CoQ1
- EC50 (FRDA fibroblasts [6]; [11]): 200 nM

Molecule: Vitamin E
- EC50 (FRDA fibroblasts [6]; [11]): 700 nM
